Test system: F. graminearum CBS185.32 strain
Format: cell-based, Fusarium graminearum
Details: for Impact of methyl caps on the activity of TC3 (ability to inhibit TCTB production): 50 µM

Substance	Impact of methyl caps on the activity of TC3 (ability to inhibit TCTB production)	Inhibitory activity on TCTB production
CGNFLKRTC(CH3)ICVKK (disulfide) [TC3-CH3-2Ox, TC3-CH3-2 oxidized, cyclized through the non-capped Cys]	most negative impact	
CGNFLKRTCIC(CH3)VKK (disulfide) [TC3-CH3-3Ox, TC3-CH3-3 oxidized, cyclized through the non-capped Cys]	most negative impact	
CGNFLTRTCICVKK [TC3-K6T, TC3 with Lys6 substituted by Thr]		lowest inhibitory activity
